Assay results: PubChem BioAssay AID2060624 (Molecular Pharmacology Branch, DTP, NCI, 2025)

Tested on: 217524-143-R1-J4-PDC spheroids with HUVEC/MSC, viability
Test: Anticancer human tumor 217524-143-R1-J4-PDC patient-derived pancreatic carcinoma cell line growth inhibition [CLK]
Settings: for viability, T/C: stronger effect = lower value
Method in brief: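 Patient-derived tumor cells grown as complex spheroids with HUVEC endothelial cells and mesenchymal stem cells, treated with drug combinations. Concentrations descend in half-log steps from near clinical Cmax, or from 10 microM if Cmax unknown.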

[1] = curve of first compound, second compound 0.0316 µM
[2] = curve of first compound, second compound 0.1 µM
[3] = curve of first compound, second compound 0.316 µM
[4] = curve of first compound, second compound 1 µM
[5] = curve of first compound, second compound 3.16 µM
[6] = curve of first compound, second compound 10 µM
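Also: spheroids exposed to agents for seven days before reading.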
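For viability, T/C in this document: 100% = DMSO vehicle control viability.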

COC1C=CCC(C)C(C)S(=O)(=O)NC(=O)c2ccc3c(c2)N(CC2CCC21)CC1(CCCc2cc(Cl)ccc21)CO3 (stereo not given) + CNC(=O)c1ccc(Nc2nc(OC3CCCC3)c3c(-c4ccc5nc(C)oc5c4)c[nH]c3n2)c(OC)c1 was tested, and the IC50 [1] was 7690 nM, the IC50 [2] was < 31.6 nM and the IC50 [3] was < 31.6 nM. The IC50 [4] was < 31.6 nM, the IC50 [5] was < 31.6 nM and the IC50 [6] was < 31.6 nM. The viability, T/C (second compound 0.0316 µM, first compound 0.0316 µM) was 83.2%, the viability, T/C (second compound 0.0316 µM, first compound 0.1 µM) was 91.3% and the viability, T/C (second compound 0.0316 µM, first compound 0.316 µM) was 95.8%. The viability, T/C (second compound 0.0316 µM, first compound 1 µM) was 114%, the viability, T/C (second compound 0.0316 µM, first compound 3.16 µM) was 108% and the viability, T/C (second compound 0.0316 µM, first compound 10 µM) was 35.6%. It also gave a viability, T/C (second compound 0.1 µM, first compound 0.0316 µM) of 46.6%, a viability, T/C (second compound 0.1 µM, first compound 0.1 µM) of 43.9% and a viability, T/C (second compound 0.1 µM, first compound 0.316 µM) of 72.9%. For the same compound, the viability, T/C (second compound 0.1 µM, first compound 1 µM) was 75.3%, the viability, T/C (second compound 0.1 µM, first compound 3.16 µM) was 91.2% and the viability, T/C (second compound 0.1 µM, first compound 10 µM) was 33.1%. It also gave a viability, T/C (second compound 0.316 µM, first compound 0.0316 µM) of 34.2%, a viability, T/C (second compound 0.316 µM, first compound 0.1 µM) of 38.8% and a viability, T/C (second compound 0.316 µM, first compound 0.316 µM) of 39.4%. It also gave a viability, T/C (second compound 0.316 µM, first compound 1 µM) of 29.6%, a viability, T/C (second compound 0.316 µM, first compound 3.16 µM) of 31.9% and a viability, T/C (second compound 0.316 µM, first compound 10 µM) of 33.7%. For the same compound, the viability, T/C (second compound 1 µM, first compound 0.0316 µM) was 30.1%, the viability, T/C (second compound 1 µM, first compound 0.1 µM) was 29.3% and the viability, T/C (second compound 1 µM, first compound 0.316 µM) was 27.4%. The viability, T/C (second compound 1 µM, first compound 1 µM) was 22.1%, the viability, T/C (second compound 1 µM, first compound 3.16 µM) was 20.9% and the viability, T/C (second compound 1 µM, first compound 10 µM) was 24.2%. The viability, T/C (second compound 3.16 µM, first compound 0.0316 µM) was 26.9%, the viability, T/C (second compound 3.16 µM, first compound 0.1 µM) was 25.1% and the viability, T/C (second compound 3.16 µM, first compound 0.316 µM) was 22.3%. It also gave a viability, T/C (second compound 3.16 µM, first compound 1 µM) of 20.6%, a viability, T/C (second compound 3.16 µM, first compound 3.16 µM) of 23.5% and a viability, T/C (second compound 3.16 µM, first compound 10 µM) of 23.9%. For the same compound, the viability, T/C (second compound 10 µM, first compound 0.0316 µM) was 29.8%, the viability, T/C (second compound 10 µM, first compound 0.1 µM) was 21% and the viability, T/C (second compound 10 µM, first compound 0.316 µM) was 17.9%. For the same compound, the viability, T/C (second compound 10 µM, first compound 1 µM) was 18.5%, the viability, T/C (second compound 10 µM, first compound 3.16 µM) was 17.5% and the viability, T/C (second compound 10 µM, first compound 10 µM) was 22.3%.
In the case of C=CC(=O)Nc1cc(Nc2nccc(-c3cn(C)c4ccccc34)n2)c(OC)cc1N(C)CCN(C)C + CNC(=O)c1ccc(Nc2nc(OC3CCCC3)c3c(-c4ccc5nc(C)oc5c4)c[nH]c3n2)c(OC)c1, the IC50 [1] is reported as 61.3 nM, the IC50 [2] is reported as < 0.949 nM and the IC50 [3] is reported as < 0.949 nM. The IC50 [4] was < 0.949 nM, the IC50 [5] was < 0.949 nM and the IC50 [6] was < 0.949 nM. It also gave a viability, T/C (second compound 0.0316 µM, first compound 0.000949 µM) of 92%, a viability, T/C (second compound 0.0316 µM, first compound 0.003 µM) of 83.9% and a viability, T/C (second compound 0.0316 µM, first compound 0.00949 µM) of 66.6%. For the same compound, the viability, T/C (second compound 0.0316 µM, first compound 0.03 µM) was 64.7%, the viability, T/C (second compound 0.0316 µM, first compound 0.0949 µM) was 41.2% and the viability, T/C (second compound 0.0316 µM, first compound 0.3 µM) was 31.4%. The viability, T/C (second compound 0.1 µM, first compound 0.000949 µM) was 47.9%, the viability, T/C (second compound 0.1 µM, first compound 0.003 µM) was 38.6% and the viability, T/C (second compound 0.1 µM, first compound 0.00949 µM) was 41.9%. The viability, T/C (second compound 0.1 µM, first compound 0.03 µM) was 31.2%, the viability, T/C (second compound 0.1 µM, first compound 0.0949 µM) was 22% and the viability, T/C (second compound 0.1 µM, first compound 0.3 µM) was 17.1%. The viability, T/C (second compound 0.316 µM, first compound 0.000949 µM) was 39.3%, the viability, T/C (second compound 0.316 µM, first compound 0.003 µM) was 39.4% and the viability, T/C (second compound 0.316 µM, first compound 0.00949 µM) was 34%. For the same compound, the viability, T/C (second compound 0.316 µM, first compound 0.03 µM) was 28.7%, the viability, T/C (second compound 0.316 µM, first compound 0.0949 µM) was 16% and the viability, T/C (second compound 0.316 µM, first compound 0.3 µM) was 16%. For the same compound, the viability, T/C (second compound 1 µM, first compound 0.000949 µM) was 31.5%, the viability, T/C (second compound 1 µM, first compound 0.003 µM) was 28.3% and the viability, T/C (second compound 1 µM, first compound 0.00949 µM) was 25.9%. It also gave a viability, T/C (second compound 1 µM, first compound 0.03 µM) of 18%, a viability, T/C (second compound 1 µM, first compound 0.0949 µM) of 13.3% and a viability, T/C (second compound 1 µM, first compound 0.3 µM) of 9.6%. The viability, T/C (second compound 3.16 µM, first compound 0.000949 µM) was 31.4%, the viability, T/C (second compound 3.16 µM, first compound 0.003 µM) was 28.3% and the viability, T/C (second compound 3.16 µM, first compound 0.00949 µM) was 24.9%. The viability, T/C (second compound 3.16 µM, first compound 0.03 µM) was 19.2%, the viability, T/C (second compound 3.16 µM, first compound 0.0949 µM) was 12.5% and the viability, T/C (second compound 3.16 µM, first compound 0.3 µM) was 8.29%. It also gave a viability, T/C (second compound 10 µM, first compound 0.000949 µM) of 26.6%, a viability, T/C (second compound 10 µM, first compound 0.003 µM) of 22.3% and a viability, T/C (second compound 10 µM, first compound 0.00949 µM) of 24.7%. The viability, T/C (second compound 10 µM, first compound 0.03 µM) was 20.1%, the viability, T/C (second compound 10 µM, first compound 0.0949 µM) was 13% and the viability, T/C (second compound 10 µM, first compound 0.3 µM) was 9.91%.
For CN1CCN(c2cc(C(=O)Nc3cc4cc(-c5cnn(C)c5)ccc4cn3)ccn2)CC1, the viability, T/C (compound 0.1 µM) was 54.9% [middle of 12 runs], the viability, T/C (compound 0.316 µM) was 21.7% [middle of 12 runs] and the viability, T/C (compound 1 µM) was 1.79% [middle of 12 runs]. The viability, T/C (compound 3.16 µM) was 0.9% [middle of 12 runs], the viability, T/C (compound 10 µM) was 0.22% [middle of 9 runs] and the IC50 (compound alone, run of 07/31/2023) was 119 nM [middle of 12 runs].
